“Also recorded” adds a separate entry of the source. Where two headings read alike, the source gives them in different places.
Experiments:
[1] = test system: acetic acid-induced bladder irritation; assay: Acute cat dilute acetic acid model (cystometry, EUS-EMG); format: in vivo; details: for bladder capacity: intravenous, during acetic acid infusion
Description: The ability of bicifadine and milnacipran, exemplary dual acting SNRI-NMDA antagonists, to reverse the reduction in bladder capacity observed following continuous infusion of dilute acetic acid in a cat model was tested. The cat model is a commonly used model for overactive bladder (Thor and Katofiasc, 1995, J. Pharmacol. Exptl. Ther. 274: 1014-24). Female cats (2.2-3 kg B W Harlan) were anesthetized with 4% isoflurane for induction followed by intravenous administration of α-chloralose (68-75 mg/kg). An i.v. catheter was inserted in the radial vein for drug administration. A heparinized (100 units/ml) saline-filled catheter (PE-90) was inserted into the carotid artery to monitor blood pressure. A trachea tube was place to monitor respiration. Via a midline lower abdominal incision, a modified 16 gauge i.v. catheter was inserted into the bladder dome for bladder filling and pressure recording. The abdominal cavity was moistened with saline and closed by covering with a thin plastic sheet in order to maintain access to the bladder for emptying purposes. Fine silver or stainless steel wire electrodes were inserted intraurethrally into the external urethral sphincter (EUS) for electromyography (EMG). Saline was continuously infused at a rate of 0.5-1 ml(s)/min via the bladder catheter for 60 minutes to obtain baseline of lower urinary tract activity (continuous cystometry; CMG). Following the control period, a 0.5% acetic acid (AA) solution in saline was infused into the bladder at the same flow rate to induce bladder irritation. Following 30 minutes of AA infusion, in one example, 1-2 vehicle injections were made at 30 minute intervals to determine vehicle effects, if any. Subsequently, increasing doses of bicifadine (0.1, 0.3, 1, 3 and 10 mg/kg) were administered intravenously at 30-60 minute intervals in order to construct a cumulative dose-response relationship (n=6). At the end of the control saline cystometry period, the vehicle, and 15 minutes following each subsequent treatment, the infusion pump was stopped, the bladder was emptied by fluid withdrawal via the infusion catheter and a single filling cystometrogram was performed at the same flow rate in order to determine changes in bladder capacity caused by the irritation protocol and subsequent drug administration. In a second example, subsequent to AA infusion, a vehicle injection was made to ensure that there were no vehicle effects. 10 mg/kg of milnacipran was then administered intravenously. The external urethral EMG activity, bladder pressure, and volume voided was measured during saline infusion, during AA infusion, and subsequent to milnacipran administration. Data for bicifadine were analyzed by non-parametric ANOVA for repeated measures (Friedman Test) with Dunn's Multiple Comparison test for cumulative dose-response studies. All comparisons were made from the last vehicle measurement. P<0.050 was considered significant.

[2] = test system: acetic acid-induced bladder irritation; assay: Acute rat dilute acetic acid model (cystometry); format: in vivo; details: acetic acid infusion compared to vehicle
From the text: The acute models described below provide methods for evaluating active agents in the treatment of overactive bladder. Briefly, the models provide a method for reducing the bladder capacity of test animals by infusing either protamine sulfate and potassium chloride (See, Chuang, Y. C. et al., Urology 61(3): 664-670 (2003)) or dilute acetic acid (See, Thor, K. and Katofiasc., M., 1995, J. Pharmacol. Exptl. Ther., 274:1014-1024; Sasaki, K. et al, J. Urol. 168(3) 1259-1264 (2002)) into the bladder. The infusates cause irritation of the bladder and a reduction in bladder capacity by selectively activating bladder afferent fibers, such as C-fiber afferents. Following irritation of the bladder, an active agent (drug) can be administered and the ability of the active agent to reverse (partially or totally) the reduction in bladder capacity resulting from the irritation, can be determined. Substances which reverse the reduction in bladder capacity can be used in the treatment of overactive bladder. Female rats (250-275 g) were anesthetized with urethane (1.2 g/kg) and a saline-filled jugular catheter (PE-50) was inserted for intravenous drug administration and a heparinized (100 units/ml) saline-filled carotid catheter (PE-50) was inserted for blood pressure monitoring. Via a midline abdominal incision from xyphoid to navel, a PE-50 catheter was inserted into the bladder dome for bladder filling and pressure recording. The abdominal cavity was moistened with saline and closed by covering with a thin plastic sheet in order to maintain access to the bladder for filling cystometry emptying purposes. […] Data for bicifadine were analyzed by non-parametric ANOVA for repeated measures (Friedman Test) with Dunn's Multiple Comparison test for cumulative dose-response studies. […] Additionally, % voiding efficiency was calculated using the following formula: ([…]/(Single Cystometrogram Bladder Capacity))*100 for bicifadine.

[3] = test system: acetic acid-induced bladder irritation; details: cat, S-norfluoxetine at 3 and 10 mg/kg; cited from earlier work
[4] = i.v. cumulative doses 0.1-10 mg/kg

CCN(CC)C(=O)C1(c2ccccc2)CC1CN (stereo not drawn) [milnacipran]
sphincter EMG activity ([1]; 10 mg/kg i.v., acetic acid infusion): unexpected increase | increase in bladder capacity ([1]; 10 mg/kg i.v., acetic acid infusion compared to control): ~2 fold | increase in sphincter EMG activity, Root Mean Square ([1]; 10 mg/kg i.v., during the period following the bladder contraction): 82.5 millivolts | increase in sphincter EMG activity, Root Mean Square ([1]; 10 mg/kg i.v., during the period of bladder filling): 19.4 millivolts | bladder capacity [1]: significant increase

Cc1ccc(C23CNCC2C3)cc1 (stereo not drawn) [bicifadine]
increase in bladder capacity ([2]; 1-10 mg/kg i.v. cumulative doses): ~100% | effect on bladder capacity ([2]; all doses (1, 3, 10 mg/kg i.v.)): had an effect on the bladder capacity | voiding efficiency ([2]; increasing i.v. doses): not effected; also recorded: basically unaffected | increase in bladder capacity ([1]; 1-10 mg/kg i.v. cumulative doses, acetic acid infusion compared to vehicle): 3 fold | increase in voiding efficiency ([1]; 1-10 mg/kg i.v., acetic acid infusion compared to vehicle): ~10% | increases in sphincter EMG during bladder filling ([1]; i.v. bicifadine, n=6 experiments): seen in two of the six experiments | arterial pressure [1, 4]: No significant decrease; also recorded: No significant changes | heart rate [1, 4]: No significant changes | contraction frequency (bladder overactivity) during continuous cystometry ([1]; i.v., 1-10 mg/kg, acetic acid infusion): reduced bladder overactivity; also recorded: dose dependent decrease from 1-10 mg/kg but this was not significant | bladder capacity [1]: significant increase | sphincter EMG activity during micturition contractions (bladder-sphincter synergy) ([1]; the two experiments with increased sphincter EMG): inhibited during micturition contractions

COc1ccc(C(CN(C)C)C2(O)CCCCC2)cc1 (stereo not drawn) [venlafaxine]
bladder capacity [3]: markedly increases | urethral sphincter electromyographic (EMG) activity [3]: markedly increases

CNCC[C@H](Oc1cccc2ccccc12)c1cccs1 [duloxetine]
bladder capacity [3]: markedly increases | urethral sphincter electromyographic (EMG) activity [3]: markedly increases

CNCCC(Oc1ccccc1SC)c1ccccc1 (stereo not drawn) [thionisoxetine]
bladder capacity [3]: no effects | urethral sphincter electromyographic (EMG) activity [3]: no effects

NCC[C@H](Oc1ccc(C(F)(F)F)cc1)c1ccccc1 [S-norfluoxetine]
bladder capacity [3]: small increases | urethral sphincter electromyographic (EMG) activity [3]: small increases

Source: US20050282859A1, “Dual acting SNRI-NMDA antagonists for the treatment of genitourinary disorders” (priority 2004, published 2005)
